# Test results as given in patent US20150218534A1, “MODIFIED DNA POLYMERASE” (TOYOBO CO., LTD., priority 2012, published 2015).
# Key:
# [1] = test system: human genomic DNA (about 1.3 kb) with dUTP added; assay: Evaluation of uracil (dUTP) sensitivity by PCR with dUTP added to the reaction; format: biochemical; conditions: for Evaluation of dUTP resisitance on a 11-point scale: closer to 0 = stronger sensitivity to dUTP, closer to 10 = lower sensitivity, summary of Examples 1 to 3; for dUTP resistance: dUTP added to 0.5, 5, 50, 100, 200 μM, about 1.3 kb, 30 cycles, 1 U enzyme
# In short: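 Uracil sensitivity is judged by whether a roughly 1.3 kb band still appears on ethidium bromide-stained agarose gel. Tolerated dUTP was tested at final 0.5 to 200 μM (0.5, 5, 50, 100, 200 μM), using 10 ng human genomic DNA, 1 U enzyme, 0.2 mM dNTPs and 1.5 mM MgSO4 in KOD-Plus-Ver. 2 buffer. Cycling: 94° C for 30 s, then 30 cycles of 98° C/65° C/68° C.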
# [2] = test system: 1.3 kbp, 2.8 kbp, and 3.6 kbp of human β-globin; assay: Amplification of long-chain DNA in PCR using dUTP; format: biochemical; design: key to Results of PCR in the presence of dUTP 1.3 kbp / Results of PCR in the presence of dUTP 2.8 kbp / Results of PCR in the presence of dUTP 3.6 kbp: A: Amplified; B: Amplified (faint band); C: Not amplified; conditions: dTTP replaced by dUTP, 35 cycles
# In short: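 Enzymes (1 U, premixed with KOD antibody) amplified 1.3, 2.8 and 3.6 kbp β-globin from 10 ng human genomic DNA with 2 mM dNTPs having dUTP in place of dTTP, 1.5 mM MgSO4, 35 cycles (98° C. 10 s, 65° C. 30 s, 68° C. ~1 min/kbp). Taq control: 2.5 U, 94° C. denaturation. Yield judged by ethidium-stained agarose gel.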
Substance,Evaluation of dUTP resisitance on a 11-point scale [1],dUTP resistance [1] [µM],Results of PCR in the presence of dUTP 1.3 kbp [2],Results of PCR in the presence of dUTP 2.8 kbp [2],Results of PCR in the presence of dUTP 3.6 kbp [2]
KOD D141A/E143A/P36H: KOD D141A/E143A (exo(−)) mutant with P36H,8,>200,A,A,A
KOD D141A/E143A/P36R: KOD D141A/E143A (exo(−)) mutant with P36R,8,>200,A,A,A
KOD D141A/E143A/V93K: KOD D141A/E143A (exo(−)) mutant with V93K,8,>200,A,B,B
KOD D141A/E143A/Y7A/P36H: KOD D141A/E143A (exo(−)) mutant with Y7A and P36H,10,>200,A,A,A
KOD D141A/E143A/Y7A/P36R: KOD D141A/E143A (exo(−)) mutant with Y7A and P36R,10,>200,A,A,A
KOD D141A/E143A/Y7A/V93K: KOD D141A/E143A (exo(−)) mutant with Y7A and V93K,10,>200,A,A,A
KOD D141A/E143A/Y7A: KOD D141A/E143A (exo(−)) mutant with Y7A,2,5,C,C,C
KOD H147E/P36H/V93K: KOD H147E (exo(+)) mutant with P36H and V93K,8,>200,A,A,C
KOD H147E/P36H: KOD H147E (exo(+)) mutant with P36H,6,>200,B,B,C
KOD H147E/P36R/V93K: KOD H147E (exo(+)) mutant with P36R and V93K,0,0,C,C,C
KOD H147E/P36R: KOD H147E (exo(+)) mutant with P36R,6,>200,B,B,B
KOD H147E/P115Δ: KOD H147E (exo(+)) mutant lacking P115,0,0,C,C,C
KOD H147E/V93K: KOD H147E (exo(+)) mutant with V93K,6,>200,B,B,B
KOD H147E/V93Q: KOD H147E (exo(+)) mutant with V93Q,4,100,C,C,C
KOD H147E/V93R: KOD H147E (exo(+)) mutant with V93R,6,>200,B,B,B
KOD H147E/Y7A/P36H: KOD H147E (exo(+)) mutant with Y7A and P36H,8,>200,A,A,B
KOD H147E/Y7A/P36R: KOD H147E (exo(+)) mutant with Y7A and P36R,8,>200,A,A,B
KOD H147E/Y7A/P115Δ: KOD H147E (exo(+)) mutant with Y7A and lacking P115,0,0,C,C,C
KOD H147E/Y7A/V93K: KOD H147E (exo(+)) mutant with Y7A and V93K,8,>200,A,A,B
KOD H147E/Y7A: KOD H147E (exo(+)) mutant with Y7A,2,0.5,C,C,C
KOD I142R/P36H: KOD I142R (exo(−)) mutant with P36H,8,>200,A,A,A
KOD I142R/P36R: KOD I142R (exo(−)) mutant with P36R,8,>200,A,A,A
KOD I142R/V93K: KOD I142R (exo(−)) mutant with V93K,8,>200,A,B,B
KOD I142R/Y7A/P36H: KOD I142R (exo(−)) mutant with Y7A and P36H,8,>200,A,A,C
KOD I142R/Y7A/P36R: KOD I142R (exo(−)) mutant with Y7A and P36R,8,>200,A,A,B
